Results reported in US20250136578A1 (Kolm Therapeutics Inc., priority 2023, published 2025).

Experiments:
AR / CBP ternary complex = AR / CBP ternary complex (Homo sapiens, UniProt P10275+Q92793); assay: Ternary complex formation assay (sandwich ELISA, AR capture, CBP antibody detection) in VCaP cell lysates; assay type: cell-based; conditions: treated 1.5 hours, rabbit CBP or p300 antibody detection, average, read-out: Average Ternary Complex
Description: Black MaxiSorp plates: coat with 50 μL of mouse 1/50 diluted AR antibody (Monoclonal Antibody (AR 441 from Thermo Fisher); diluted in phosphate buffered saline (PBS). Spin the liquid to the bottom of the wells, if necessary. Incubate overnight at 4° C. Next day, wash 3 times with 200 μL of TBST. Block with 200 μL of blocking buffer (5% BSA in TBST) at room temperature for 2 hours (BSA: A4503 or A2153 from Sigma). Wash plates 3 times with TBST. Plates are ready for lysates Preparation of dimerizer treated lysates
Culture cells in 96 wells at 50K VCaP cells/well for at least 3 days. Plate in 5% Omega charcoal stripped FBS in total volume of 200 uL. Treat with bifunctional for 1.5 hours by adding 1 μL of 200× stock in DMSO. Aspirate media/compound. Add and pipet-to-mix 70 μL of 1× AlphaLisa Lysis Buffer to each well (Perkin Elmer, AlphaLISA SureFire Ultra, diluted in water). Pipet up and down when adding lysis buffer to disrupt cells. Let lysis proceed for 30 min at 4° C.
Incubate for 1 hour at room temperature. Flick out the lysates. Wash 3 times with TBST. Add 75 μL of rabbit CBP or p300 antibody to each well (diluted 1:5000 in blocking buffer (5% BSA in TBST). CBP antibody: (D6C5) Rabbit mAb #7389; p300 antibody: (D8Z4E) Rabbit mAb #86377. Incubate overnight at 4° C. Wash 3 times with 300 uL TBST, each time on shaker for 5-10 min. Prepare goat anti-rabbit antibody conjugated to HRP (1/100K dilution in blocking buffer) Invitrogen Catalog number: 32260. Add 75 μL of HRP-conjugated goat anti-rabbit antibody. Incubate at room temperature for 1 hour. Flick out the HRP-antibody mixture. Wash 7-8 times with TBST, each time on shaker for 10 min. Later washes try to overflow the wells so that no residual HRP remains bound to the sides of the well. Prepare and add 75 uL/well of QuantaRed Enhance Chemifluorescent HRP Substrate solution. Immediately read fluorescence on BMG ClarioStar (ex: 570/em 585), and repeat the read in 5 minutes and 15 minutes.

VCaP cells = assay: VCaP growth inhibition assay (CTG); assay type: cell-based; conditions: 30 pM R1881, 9 days
Description: VCaP cells (ATCC Cat #CRL-2876) are plated at 1×10^4 cells per well of a white plastic 96-well cluster plate (Thermo Scientific Nunc Cat #165306) in 100 uL phenol red-free DMEM (Gibco Cat #21063-029) media with 5% CSS (Omega Scientific Cat #FB-04). Cluster plates are returned to the incubator (37*C/5% CO2) for 72 hours prior to treatment. Just prior to treatment, 100 uL of phenol red-free DMEM/5% CSS and 60 pM R1881 (Sigma Cat #R0908-10 mg) was added to each well of the cluster plates (Final R1881 concentration=30 pM). Compounds (200X) were added to each well in a volume of 1 uL, with serial dilutions (1:5) from 20 uM to 2 pM (final concentrations in well are 100 nM to 10 fM). Cluster plates are returned to the incubator for 9 days.
After the 9-day treatment period, media was removed from the cluster plates by inversion and 100 uL room temperature CTG reagent (Promega Cat #G7573) is added to each well. The cluster plates are placed on a shaker and incubated at room temperature for 20 minutes. Following this shaking/incubation, cluster plates are read on a luminometer (BMG ClarioStar). IC50 values are obtained by graphing the RLU data vs. compound concentration with nonlinear regression 4-parameter logistic curves (GraphPad Prism).

Chain of AR / CBP ternary complex (P10275 whole entry): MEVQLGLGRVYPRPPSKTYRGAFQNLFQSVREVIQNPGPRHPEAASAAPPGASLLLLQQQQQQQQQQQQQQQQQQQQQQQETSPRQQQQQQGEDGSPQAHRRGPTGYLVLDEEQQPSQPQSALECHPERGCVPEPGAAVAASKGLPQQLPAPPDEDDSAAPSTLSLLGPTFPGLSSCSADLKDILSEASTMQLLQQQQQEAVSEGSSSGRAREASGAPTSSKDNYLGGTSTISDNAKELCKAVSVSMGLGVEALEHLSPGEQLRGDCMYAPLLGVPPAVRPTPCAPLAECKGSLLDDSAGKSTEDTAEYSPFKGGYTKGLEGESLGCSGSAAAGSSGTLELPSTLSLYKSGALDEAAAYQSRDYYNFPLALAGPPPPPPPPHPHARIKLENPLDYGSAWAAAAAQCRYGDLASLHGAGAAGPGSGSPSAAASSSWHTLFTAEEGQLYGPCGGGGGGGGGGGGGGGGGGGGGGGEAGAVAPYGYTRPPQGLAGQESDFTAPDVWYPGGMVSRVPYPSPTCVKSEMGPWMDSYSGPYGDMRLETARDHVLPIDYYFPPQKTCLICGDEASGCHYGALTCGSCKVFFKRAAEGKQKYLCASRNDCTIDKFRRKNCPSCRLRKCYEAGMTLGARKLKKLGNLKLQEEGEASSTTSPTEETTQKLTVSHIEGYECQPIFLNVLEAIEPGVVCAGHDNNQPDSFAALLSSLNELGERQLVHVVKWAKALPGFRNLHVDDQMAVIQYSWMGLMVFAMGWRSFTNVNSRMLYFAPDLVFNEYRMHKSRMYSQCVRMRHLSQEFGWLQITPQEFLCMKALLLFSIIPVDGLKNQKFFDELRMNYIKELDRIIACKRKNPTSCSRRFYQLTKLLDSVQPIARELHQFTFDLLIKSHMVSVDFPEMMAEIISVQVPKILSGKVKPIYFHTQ
Chain of AR / CBP ternary complex (Q92793 2-2442): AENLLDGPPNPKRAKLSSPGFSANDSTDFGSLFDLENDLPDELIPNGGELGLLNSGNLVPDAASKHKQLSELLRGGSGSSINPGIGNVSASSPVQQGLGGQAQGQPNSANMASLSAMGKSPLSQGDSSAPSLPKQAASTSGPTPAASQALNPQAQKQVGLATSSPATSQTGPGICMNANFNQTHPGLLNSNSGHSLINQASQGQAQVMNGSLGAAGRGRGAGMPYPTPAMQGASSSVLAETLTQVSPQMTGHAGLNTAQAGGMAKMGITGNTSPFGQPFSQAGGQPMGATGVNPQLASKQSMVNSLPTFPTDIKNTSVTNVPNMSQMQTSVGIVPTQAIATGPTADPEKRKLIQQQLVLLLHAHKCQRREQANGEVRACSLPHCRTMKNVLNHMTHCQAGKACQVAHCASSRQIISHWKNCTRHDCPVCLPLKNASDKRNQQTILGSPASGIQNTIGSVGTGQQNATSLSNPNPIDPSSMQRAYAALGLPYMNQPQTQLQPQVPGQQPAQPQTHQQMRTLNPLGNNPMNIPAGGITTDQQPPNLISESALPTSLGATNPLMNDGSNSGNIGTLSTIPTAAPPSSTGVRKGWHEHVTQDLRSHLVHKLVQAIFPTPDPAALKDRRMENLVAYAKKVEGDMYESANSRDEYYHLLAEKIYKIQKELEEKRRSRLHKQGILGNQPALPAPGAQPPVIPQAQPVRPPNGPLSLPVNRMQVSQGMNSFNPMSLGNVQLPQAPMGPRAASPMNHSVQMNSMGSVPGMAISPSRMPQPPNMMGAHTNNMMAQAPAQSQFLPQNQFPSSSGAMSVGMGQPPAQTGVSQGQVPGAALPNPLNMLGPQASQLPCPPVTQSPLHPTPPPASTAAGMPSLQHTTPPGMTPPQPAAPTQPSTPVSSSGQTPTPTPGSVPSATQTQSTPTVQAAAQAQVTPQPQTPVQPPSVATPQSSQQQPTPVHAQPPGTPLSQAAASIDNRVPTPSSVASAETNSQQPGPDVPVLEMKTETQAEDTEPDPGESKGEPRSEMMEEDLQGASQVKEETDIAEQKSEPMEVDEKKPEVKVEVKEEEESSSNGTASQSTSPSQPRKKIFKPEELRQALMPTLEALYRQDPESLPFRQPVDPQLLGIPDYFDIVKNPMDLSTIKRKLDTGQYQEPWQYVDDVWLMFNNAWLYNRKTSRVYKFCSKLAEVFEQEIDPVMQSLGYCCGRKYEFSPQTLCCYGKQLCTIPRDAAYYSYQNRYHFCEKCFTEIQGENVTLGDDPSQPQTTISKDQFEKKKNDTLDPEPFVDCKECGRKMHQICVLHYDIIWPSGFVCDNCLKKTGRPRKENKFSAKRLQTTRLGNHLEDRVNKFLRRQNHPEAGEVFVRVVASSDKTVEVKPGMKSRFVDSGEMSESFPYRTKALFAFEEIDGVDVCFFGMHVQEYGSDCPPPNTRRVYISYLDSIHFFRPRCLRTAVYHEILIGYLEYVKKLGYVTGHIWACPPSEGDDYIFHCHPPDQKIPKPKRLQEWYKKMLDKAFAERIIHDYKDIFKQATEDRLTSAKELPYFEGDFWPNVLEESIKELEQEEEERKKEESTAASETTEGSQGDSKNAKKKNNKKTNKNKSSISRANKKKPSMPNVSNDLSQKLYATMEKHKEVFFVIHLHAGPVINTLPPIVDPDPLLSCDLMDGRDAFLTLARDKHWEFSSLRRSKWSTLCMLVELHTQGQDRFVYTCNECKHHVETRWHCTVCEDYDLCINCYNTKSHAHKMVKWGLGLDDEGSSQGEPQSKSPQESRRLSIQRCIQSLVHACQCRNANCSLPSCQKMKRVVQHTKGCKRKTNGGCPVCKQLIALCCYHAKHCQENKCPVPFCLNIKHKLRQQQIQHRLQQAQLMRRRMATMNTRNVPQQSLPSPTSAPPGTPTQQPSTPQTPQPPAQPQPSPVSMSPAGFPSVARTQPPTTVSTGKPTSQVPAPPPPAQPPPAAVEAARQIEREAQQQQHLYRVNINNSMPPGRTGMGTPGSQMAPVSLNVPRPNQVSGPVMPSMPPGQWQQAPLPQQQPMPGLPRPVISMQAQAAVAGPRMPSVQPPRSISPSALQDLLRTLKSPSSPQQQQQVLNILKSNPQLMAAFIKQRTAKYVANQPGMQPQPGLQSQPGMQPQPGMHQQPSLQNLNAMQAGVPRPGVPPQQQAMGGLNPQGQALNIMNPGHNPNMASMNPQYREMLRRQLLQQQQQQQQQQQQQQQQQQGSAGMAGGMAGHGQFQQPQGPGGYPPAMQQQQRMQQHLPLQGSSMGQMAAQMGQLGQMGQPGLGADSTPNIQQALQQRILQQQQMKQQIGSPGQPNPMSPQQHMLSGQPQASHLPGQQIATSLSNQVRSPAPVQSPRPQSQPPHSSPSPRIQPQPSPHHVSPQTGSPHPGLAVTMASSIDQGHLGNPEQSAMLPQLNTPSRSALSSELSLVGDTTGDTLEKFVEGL

Row | EC50 (AR / CBP ternary complex) [nM] | IC50 (VCaP cells) [nM] | IC50 (VCaP cells; Homo sapiens, 216 h) [nM] | Compound
1 | < 1 |  | 0.1 to 1 | CC(=O)N1CCc2c(c(N3CCCc4cc(C#N)ccc43)nn2C2CCN(C[C@H]3CCN(c4ccc(C(=O)N[C@H]5CC[C@H](Oc6ccc(C#N)c(Cl)c6)CC5)nn4)C[C@@H]3C)CC2)C1 (stereo in doubt) [Compound 105, 6-[4-[[4-[5-acetyl-3-(6-cyano-3,4-dihydro-2H-quinolin-1-yl)-6,7-dihydro-4H-pyrazolo[4,3-c]pyridin-1-yl]-1-piperidyl]methyl]-3-methyl-1-piperidyl]-N-[4-(3-chloro-4-cyano-phenoxy)cyclohexyl]pyridazine-3-carboxamide]
2 | < 1 |  | ≤ 0.1 | CC(=O)N1CCc2c(c(N3CCCc4cc(-c5cnn(C)c5)c(C)cc43)nn2C2CCN(C(=O)C3CCN(c4ccc(C(=O)N[C@H]5CC[C@H](Oc6ccc(C#N)c(Cl)c6)CC5)nn4)CC3)CC2)C1 [Compound 3, 6-[4-[4-[5-acetyl-3-[7-methyl-6-(1-methylpyrazol-4-yl)-3,4-dihydro-2H-quinolin-1-yl]-6,7-dihydro-4H-pyrazolo[4,3-c]pyridin-1-yl]piperidine-1-carbonyl]-1-piperidyl]-N-[4-(3-chloro-4-cyano-phenoxy)cyclohexyl]pyridazine-3-carboxamide]
3 | < 1 |  | ≤ 0.1 | CC(=O)N1CCc2c(c(-c3cccc4cc(-c5cnn(C)c5)ncc34)nn2C2CN(CC3CCN(c4ccc(C(=O)N[C@H]5CC[C@H](Oc6ccc(C#N)c(Cl)c6)CC5)nn4)CC3)C2)C1 [Compound 4, 6-[4-[[3-[5-acetyl-3-[3-(1-methylpyrazol-4-yl)-8-isoquinolyl]-6,7-dihydro-4H-pyrazolo[4,3-c]pyridin-1-yl]azetidin-1-yl]methyl]-1-piperidyl]-N-[4-(3-chloro-4-cyano-phenoxy)cyclohexyl]pyridazine-3-carboxamide]
4 | < 1 |  | ≤ 0.1 | CC(=O)N1CCc2c(c(-c3cccc4cc(-c5cnn(C)c5)ncc34)nn2C2CCN(CCC3CCN(c4ccc(C(=O)N[C@H]5CC[C@H](Oc6ccc(C#N)c(Cl)c6)CC5)nn4)CC3)CC2)C1 [Compound 5, 6-[4-[2-[4-[5-acetyl-3-[3-(1-methylpyrazol-4-yl)-8-isoquinolyl]-6,7-dihydro-4H-pyrazolo[4,3-c]pyridin-1-yl]-1-piperidyl]ethyl]-1-piperidyl]-N-[4-(3-chloro-4-cyano-phenoxy)cyclohexyl]pyridazine-3-carboxamide]
5 |  |  | ≤ 0.1 | CC(=O)N1CCc2c(c(N3CCCc4cc(-c5cnn(C)c5)c(C(F)F)cc43)nn2[C@H]2CC[C@H](N(C)C3CCN(c4ccc(C(=O)N[C@H]5CC[C@H](Oc6ccc(C#N)c(Cl)c6)CC5)nn4)CC3)CC2)C1 [Compound 187, 6-[4-[[4-[5-acetyl-3-[7-(difluoromethyl)-6-(1-methylpyrazol-4-yl)-3,4-dihydro-2H-quinolin-1-yl]-6,7-dihydro-4H-pyrazolo[4,3-c]pyridin-1-yl]cyclohexyl]-methyl-amino]-1-piperidyl]-N-[4-(3-chloro-4-cyano-phenoxy)cyclohexyl]pyridazine-3-carboxamide]

Further lines, the molecule ahead of its results:

Row | Compound | EC50 (AR / CBP ternary complex) [nM] | IC50 (VCaP cells) [nM] | IC50 (VCaP cells; Homo sapiens, 216 h) [nM]
6 | CC(=O)N1CCc2c(c(N3CCCc4cc(-c5cnn(C)c5)c(C(F)F)cc43)nn2C2CCN(C[C@H]3CCN(c4ccc(C(=O)N[C@H]5CC[C@H](Oc6ccc(C#N)c(Cl)c6)CC5)nn4)C[C@H]3C)CC2)C1 (stereo in doubt) [Compound 101, 6-[4-[[4-[5-acetyl-3-[7-(difluoromethyl)-6-(1-methylpyrazol-4-yl)-3,4-dihydro-2H-quinolin-1-yl]-6,7-dihydro-4H-pyrazolo[4,3-c]pyridin-1-yl]-1-piperidyl]methyl]-3-methyl-1-piperidyl]-N-[4-(3-chloro-4-cyano-phenoxy)cyclohexyl]pyridazine-3-carboxamide] | < 1 | ≤ 0.1 | 
7 | CO[C@H]1CN(c2ccc(C(=O)N[C@H]3CC[C@H](Oc4ccc(C#N)c(Cl)c4)CC3)nn2)CC[C@@H]1CN1CCC(n2nc(N3CCCc4cc(-c5cnn(C)c5)c(C(F)F)cc43)c3c2CCN(C(C)=O)C3)CC1 (stereo in doubt) [Compound 220, 6-[4-[[4-[5-acetyl-3-[7-(difluoromethyl)-6-(1-methylpyrazol-4-yl)-3,4-dihydro-2H-quinolin-1-yl]-6,7-dihydro-4H-pyrazolo[4,3-c]pyridin-1-yl]-1-piperidyl]methyl]-3-methoxy-1-piperidyl]-N-[4-(3-chloro-4-cyano-phenoxy)cyclohexyl]pyridazine-3-carboxamide] | < 1 |  | ≤ 0.1
8 | CC(=O)N1CCc2c(c(N3CCCc4cc(-c5cnn(C)c5)c(C(F)F)cc43)nn2C2CCN(C(=O)C3CCN(c4ccc(C(=O)N[C@H]5CC[C@H](Oc6ccc(C#N)c(Cl)c6)CC5)nn4)CC3)CC2)C1 [Compound 2] | < 1 |  | ≤ 0.1
9 | COC1(CN2CCC(n3nc(N4CCCc5cc(-c6cnn(C)c6)c(C(F)F)cc54)c4c3CCN(C(C)=O)C4)CC2)CCN(c2ccc(C(=O)N[C@H]3CC[C@H](Oc4ccc(C#N)c(Cl)c4)CC3)nn2)CC1 [Compound 177, 6-[4-[[4-[5-acetyl-3-[7-(difluoromethyl)-6-(1-methylpyrazol-4-yl)-3,4-dihydro-2H-quinolin-1-yl]-6,7-dihydro-4H-pyrazolo [4,3-c]pyridin-1-yl]-1-piperidyl]methyl]-4-methoxy-1-piperidyl]-N-[4-(3-chloro-4-cyano-phenoxy)cyclohexyl]pyridazine-3-carboxamide] |  |  | ≤ 0.1
10 | CC(=O)N1CCc2c(c(-c3cccc4cc(-c5ccc(N6CCC7(CC6)CCN(c6ccc(C(=O)N[C@H]8CC[C@H](Oc9ccc(C#N)c(Cl)c9)CC8)nn6)CC7)nc5)ncc34)nn2C2CCOCC2)C1 [Compound 179, 6-[9-[5-[8-(5-acetyl-1-tetrahydropyran-4-yl-6,7-dihydro-4H-pyrazolo[4,3-c]pyridin-3-yl)-3-isoquinolyl]-2-pyridyl]-3,9-diazaspiro[5.5]undecan-3-yl]-N-[4-(3-chloro-4-cyano-phenoxy)cyclohexyl]pyridazine-3-carboxamide] |  |  | 0.1 to 1
11 | CC(=O)N1CCc2c(c(N3CCCc4cc(-c5cnn(C)c5)c(C(F)F)cc43)nn2C2CCN(C3CCC4(CC3)CN(c3ccc(C(=O)N[C@H]5CC[C@H](Oc6ccc(C#N)c(Cl)c6)CC5)nn3)C4)CC2)C1 [Compound 185, 6-[7-[4-[5-acetyl-3-[7-(difluoromethyl)-6-(1-methylpyrazol-4-yl)-3,4-dihydro-2H-quinolin-1-yl]-6,7-dihydro-4H-pyrazolo[4,3-c]pyridin-1-yl]-1-piperidyl]-2-azaspiro[3.5]nonan-2-yl]-N-[4-(3-chloro-4-cyano-phenoxy)cyclohexyl]pyridazine-3-carboxamide] |  |  | ≤ 0.1
12 | CC(=O)N1CCc2c(c(N3CCCc4cc(-c5cnn(C)c5)c(C(F)F)cc43)nn2[C@H]2CC[C@@H](N(C)C3CCN(c4ccc(C(=O)N[C@H]5CC[C@H](Oc6ccc(C#N)c(Cl)c6)CC5)nn4)CC3)CC2)C1 [Compound 189, 6-[4-[[4-[5-acetyl-3-[7-(difluoromethyl)-6-(1-methylpyrazol-4-yl)-3,4-dihydro-2H-quinolin-1-yl]-6,7-dihydro-4H-pyrazolo[4,3-c]pyridin-1-yl]cyclohexyl]-methyl-amino]-1-piperidyl]-N-[4-(3-chloro-4-cyano-phenoxy)cyclohexyl]pyridazine-3-carboxamide] |  |  | ≤ 0.1
13 | CC(=O)N1CCc2c(c(N3CCCc4cc(-c5ccc(OC6CC7(CCN(c8ccc(C(=O)N[C@H]9CC[C@H](Oc%10ccc(C#N)c(Cl)c%10)CC9)nn8)CC7)C6)nc5)c(C(F)F)cc43)nn2C2CCOCC2)C1 [Compound 202, 6-[2-[[5-[1-(5-acetyl-1-tetrahydropyran-4-yl-6,7-dihydro-4H-pyrazolo[4,3-c]pyridin-3-yl)-7-(difluoromethyl)-3,4-dihydro-2H-quinolin-6-yl]-2-pyridyl]oxy]-7-azaspiro[3.5]nonan-7-yl]-N-[4-(3-chloro-4-cyano-phenoxy)cyclohexyl]pyridazine-3-carboxamide] |  |  | 0.1 to 1
